Active and inactive are the calls of the source. The rule behind the calls is not given here.
What was measured:
[1] = molecular target: T1, Delta-type opioid receptor (Homo sapiens, UniProt P41143); assay: Binding affinity at cloned human delta-opioid receptor
[2] = molecular target: T2, Kappa-type opioid receptor (Homo sapiens, UniProt P41145); assay: Binding affinity at cloned human opioid receptor kappa 1
[3] = molecular target: T1, Delta-type opioid receptor; assay: Agonist potency using GTP-gamma [35S]- binding assay for delta-opioid receptor; Inactive
Mu-type opioid receptor [4] = molecular target: T3, Mu-type opioid receptor (Homo sapiens, UniProt P35372); assay: Binding affinity at cloned human mu-opioid receptor
T3 sequence (P35372 whole entry): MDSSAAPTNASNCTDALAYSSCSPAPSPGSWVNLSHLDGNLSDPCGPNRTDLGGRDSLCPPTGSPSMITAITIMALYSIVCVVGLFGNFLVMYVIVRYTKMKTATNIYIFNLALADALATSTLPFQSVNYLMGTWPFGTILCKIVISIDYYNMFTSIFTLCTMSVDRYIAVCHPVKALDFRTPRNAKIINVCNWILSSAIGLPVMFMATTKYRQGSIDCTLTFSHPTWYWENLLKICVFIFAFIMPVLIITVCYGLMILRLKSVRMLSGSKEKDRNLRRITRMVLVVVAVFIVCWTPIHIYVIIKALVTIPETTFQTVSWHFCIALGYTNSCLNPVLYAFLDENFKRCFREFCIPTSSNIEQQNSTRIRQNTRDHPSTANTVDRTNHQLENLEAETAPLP

[5] = molecular target: T1, Delta-type opioid receptor; assay: Agonist potency using GTP-gamma [35S]- binding assay for delta-opioid receptor
[6] = molecular target: T2, Kappa-type opioid receptor
[7] = molecular target: T2, Kappa-type opioid receptor; assay: Compound was tested for maximum stimulation of opioid receptor kappa 1 by GTP-gamma [35S]- binding assay
[8] = molecular target: T2, Kappa-type opioid receptor; assay: Agonist potency using GTP-gamma [35S]- binding assay for opioid receptor kappa 1
Mu-type opioid receptor [9] = molecular target: T3, Mu-type opioid receptor; assay: Agonist potency using GTP-gamma [35S]- binding assay for mu-opioid receptor
Mu-type opioid receptor [10] = molecular target: T3, Mu-type opioid receptor; assay: Agonist potency using GTP-gamma [35S]- binding assay for mu-opioid receptor; Inactive

T2 sequence (P41145 whole entry): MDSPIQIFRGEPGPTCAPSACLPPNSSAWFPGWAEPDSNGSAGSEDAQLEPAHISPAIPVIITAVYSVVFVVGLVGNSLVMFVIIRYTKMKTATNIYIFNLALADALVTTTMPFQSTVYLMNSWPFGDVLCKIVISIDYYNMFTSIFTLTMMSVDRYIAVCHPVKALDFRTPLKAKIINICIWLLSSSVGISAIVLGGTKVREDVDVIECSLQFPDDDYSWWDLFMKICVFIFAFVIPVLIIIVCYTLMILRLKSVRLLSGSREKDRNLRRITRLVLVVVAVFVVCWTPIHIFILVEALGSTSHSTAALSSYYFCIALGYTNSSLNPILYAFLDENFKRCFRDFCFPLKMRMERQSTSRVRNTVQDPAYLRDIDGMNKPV
T1 sequence (P41143 whole entry): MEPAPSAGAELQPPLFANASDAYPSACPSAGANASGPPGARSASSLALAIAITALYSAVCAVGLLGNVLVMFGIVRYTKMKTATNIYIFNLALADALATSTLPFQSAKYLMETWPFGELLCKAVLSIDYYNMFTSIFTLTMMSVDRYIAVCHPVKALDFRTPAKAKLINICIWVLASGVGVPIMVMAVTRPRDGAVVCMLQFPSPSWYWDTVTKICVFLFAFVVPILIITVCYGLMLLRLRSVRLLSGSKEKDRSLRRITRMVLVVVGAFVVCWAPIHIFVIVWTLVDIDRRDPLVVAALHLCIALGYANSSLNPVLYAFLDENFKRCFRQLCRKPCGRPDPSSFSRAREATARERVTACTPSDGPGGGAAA

SMILES | IC50 [1] | IC50 [2] | NA [3] | IC50 (Mu-type opioid receptor [4]) | EC50 [5] | NA [6] | Emax [7] | EC50 [8] | EC50 (Mu-type opioid receptor [9]) | NA (Mu-type opioid receptor [10])
Cc1cc(O)cc(C)c1C[C@H](N)C(=O)N1Cc2ccccc2C[C@H]1CN(C)C | 0.97 nM | 793 nM | inactive | 83.2 nM |  |  |  |  |  | 
Cc1cc(O)cc(C)c1C[C@H](N)C(=O)N1Cc2ccccc2C[C@H]1CN=C(N)N | 3.2 nM | 345 nM |  | 12.8 nM |  |  |  |  |  | 
Cc1cc(O)cc(C)c1C[C@H](N)C(=O)N1Cc2ccccc2C[C@H]1CNC(=S)Nc1ccccc1 | 0.27 nM | 51.4 nM |  | 5.4 nM | 1.7 nM |  |  |  |  | 
CC(C)[C@H](NC(=O)[C@H](CC(=O)O)NC(=O)[C@H](Cc1ccccc1)NC(=O)[C@@H](C)NC(=O)[C@@H](N)Cc1ccc(O)cc1)C(=O)N[C@H](C(=O)NCC(N)=O)C(C)C |  |  |  |  |  | inactive |  |  |  | 
CC(=O)NC[C@@H]1Cc2ccccc2CN1C(=O)[C@@H](N)Cc1c(C)cc(O)cc1C | 0.79 nM | 9380 nM |  | 16.1 nM | 1.5 nM |  |  |  |  | 
Cc1cc(O)cc(C)c1C[C@H](N)C(=O)N1Cc2ccccc2C[C@H]1C | 1.7 nM | 764 nM | inactive | 3 nM |  |  |  |  |  | 
Cc1cc(O)cc(C)c1C[C@H](N)C(=O)N1Cc2ccccc2C[C@H]1CNC(=O)Nc1ccccc1 | 0.13 nM | 4.8 nM |  | 1 nM | 0.75 nM |  | 81.7% | 161 nM | 18.8 nM | 
Cc1cc(O)cc(C)c1C[C@H](N)C(=O)N1Cc2ccccc2C[C@H]1CNC(=O)NC12CC3CC(CC(C3)C1)C2 | 0.29 nM | 4.1 nM | inactive | 1.1 nM |  |  | 81.7% | 11.5 nM |  | inactive
Cc1cc(O)cc(C)c1C[C@H](N)C(=O)N1Cc2ccccc2C[C@H]1CNC(=S)NC(C)(C)C | 0.22 nM | 2.8 nM |  | 36 nM | 0.32 nM |  |  | 24.3 nM |  | 
Cc1cc(O)cc(C)c1C[C@H](N)C(=O)N1Cc2ccccc2C[C@H]1CO | 2 nM | > 10000 nM | inactive | 421 nM |  |  |  |  |  | inactive
CC(=N)NC[C@@H]1Cc2ccccc2CN1C(=O)[C@@H](N)Cc1c(C)cc(O)cc1C | 9.9 nM | 996 nM |  | 33.2 nM |  |  |  |  |  | 
Cc1cc(O)cc(C)c1C[C@H](N)C(=O)N1Cc2ccccc2C[C@H]1CN=[N+]=[N-] | 1.1 nM | 1070 nM |  | 94.6 nM | 49.4 nM |  |  |  |  | 
Cc1cc(O)cc(C)c1C[C@H](N)C(=O)N1Cc2ccccc2C[C@H]1CNC(=O)c1ccccc1 | 0.24 nM | 307 nM | inactive | 0.98 nM |  |  |  |  | 109 nM | 
Cc1cc(O)cc(C)c1C[C@H](N)C(=O)N1Cc2ccccc2C[C@H]1CNC(=O)NC(C)(C)C | 0.17 nM | 1.3 nM |  | 61.8 nM | 0.65 nM |  | 96.9% | 6.9 nM |  | inactive
Cc1cc(O)cc(C)c1C[C@H](N)C(=O)N1Cc2ccccc2C[C@H]1CN | 4.9 nM | 521 nM | inactive | 113 nM |  |  |  |  |  | 
CC(=O)OC[C@@H]1Cc2ccccc2CN1C(=O)[C@@H](N)Cc1c(C)cc(O)cc1C | 1.1 nM | 3100 nM | inactive | 4.7 nM |  |  |  |  |  | inactive
Cc1cc(O)cc(C)c1C[C@H](N)C(=O)N1Cc2ccccc2C[C@H]1CNC(=O)C(C)(C)C | 0.79 nM | 394 nM | inactive | 25.3 nM |  |  |  |  |  | 
Cc1cc(O)cc(C)c1C[C@H](N)C(=O)N1Cc2ccccc2C[C@H]1COCc1ccccc1 | 0.33 nM | 64.6 nM |  | 12.5 nM | 0.97 nM |  |  |  |  | inactive
Cc1cc(O)cc(C)c1C[C@H](N)C(=O)N1Cc2ccccc2C[C@H]1C/N=C(/S)NC(C)(C)C |  |  |  |  |  |  | 99.6% |  |  | 
Cc1cc(O)cc(C)c1C[C@H](N)C(=O)N1Cc2ccccc2C[C@H]1CNCC(C)(C)C | 0.99 nM | 1.5 nM |  | 1.3 nM | 2.8 nM |  | 102% | 1.4 nM |  | inactive
CCNC(=O)NC[C@@H]1Cc2ccccc2CN1C(=O)[C@@H](N)Cc1c(C)cc(O)cc1C | 0.99 nM | 321 nM |  | 169 nM | 5.7 nM |  |  |  |  | 
Cc1cc(O)cc(C)c1C[C@H](N)C(=O)N1Cc2ccccc2C[C@H]1CNCc1ccccc1 | 0.41 nM | 1.5 nM |  | 0.65 nM | 0.92 nM |  | 100% | 6.8 nM | 37.1 nM | 
C=CCOC[C@@H]1Cc2ccccc2CN1C(=O)[C@@H](N)Cc1c(C)cc(O)cc1C | 0.98 nM | 1450 nM | inactive | 108 nM |  |  |  |  |  | 
COC[C@@H]1Cc2ccccc2CN1C(=O)[C@@H](N)Cc1c(C)cc(O)cc1C | 1.3 nM | 2510 nM | inactive | 458 nM |  |  |  |  |  | 

Reference: ChEMBL document CHEMBL1134689, “Novel C-terminus modifications of the Dmt-Tic motif: a new class of dipeptide analogues showing altered pharmacological profiles toward the opioid receptors” (J Med Chem, 2001)
